{"source": "patent US5602156A", "about": "“Method for inhibiting metalloproteinase expression” (The United States of America as represented by the …, priority 1994, dated 1997)", "key": {"MMP-2 [1]": {"tested_on": "MMP-2", "assay": "Gelatin zymography of conditioned media from human cancer cell lines (gelatinase activity)", "assay_type": "cell-based", "protocol": "(§1) Conditioned media for zymogram and Western blot analysis were produced under serum-free conditions. Cells (2 million) were plated in 25 cm^2 flasks in serum-containing medium and cultured overnight. Serum-containingmedium was removed and the cell monolayers were washed twice with DMEM/ITS (DMEM containing insulin (5 μg/mL), transferrin (5 μg/mL), and selenium (5 ng/mL)). The resultant cells were fed with 3 mL of DMEM/ITS and additives as described in the Examples for two 24 hour periods. Conditioned media samples were collected at 24 hours and cells were refed with fresh DMEM/ITS containing the described additives for an additional 24 hours. Conditioned media samples were centrifuged to remove cells and debris then frozen at -20° C. until use. Freeze and thaw cycles of the conditioned media were limited to no more than two.\nQuantitation of the effect was evaluated by laser densitometry of the resultant zymograms.\nAliquots of conditioned medium (15 μL) were electrophoresed on gelatin-containing 10% PAGE gels under nonreducing but denaturing conditions. These conditions allow the different gelatin-degrading species (MMPs) to separate by size. […] Bands of clearing, seen after Coomassie blue staining correspond to areas of gelatinase activity.\nOVCAR3 conditioned media samples were concentrated 10-fold prior to zymography.\nKnown concentrated conditioned medium from HT1080 cells was used for identification of the gelatinase species as marked in FIG. 1A: 92 kDa, gelatinase B/MMP-9; 72 kDa, gelatinase A/MMP-2 latent form; 65 kDa intermediate and 62 kDa activated forms of MMP-2. The activated form of MMP-2 results from cleavage of the amino terminal domain.\nLane 1 corresponds to cells treated only with 0.05% DMSO as a control.\nQuantitation of the zymograms in FIGS. 1A-1C were carded out using laser densitometry.\nThe effect of structural analogs on the gelatinase activity of A2058 cells was similarly evaluated."}, "[2]": {"tested_on": "receptor-operated and voltage-gated calcium influx", "details": "cited from earlier work"}, "arachidonic acid release": {"tested_on": "arachidonic acid release", "details": "cited from earlier work"}, "phospholipase C-γ": {"tested_on": "phospholipase C-γ", "details": "cited from earlier work"}, "MMP-2 [3]": {"tested_on": "MMP-2", "assay": "Gelatin zymography of A2058 cells, compound 1 with or without TGF-β1 (densitometry)", "assay_type": "cell-based, human", "details": "TGF-β1 alone (0 hr compound 1), control band = 100%", "protocol": "as §1\n(§2) A2058 human melanoma cells, human HT1080 fibrosarcoma cells, and OVCAR3 human ovarian cancer cells were incubated with increasing concentrations of compound 1 (0.2-20 μM) or DMSO control (0.05%) and subjected to gelatin zymography. Aliquots of conditioned medium (15 μL) were electrophoresed on gelatin-containing 10% PAGE gels under nonreducing but denaturing conditions. These conditions allow the different gelatin-degrading species (MMPs) to separate by size. The enzymes renature after removal of the SDS by incubation of the gel with 2.5 % Triton X-100, and degrade the gelatin substrate present in the polyacrylamide gel upon overnight incubation in low salt collagenase buffer. Bands of clearing, seen after Coomassie blue staining correspond to areas of gelatinase activity.\n(§3) A2058 and HT1080 cells were incubated with compound 1 (2 μM), with or without TGF-β1 (5 ng/mL) for 24 and 48 hours prior to harvest of conditioned media. Aliquots were subjected to gelatin zymography as described in Example 1. Known concentrated conditioned medium from HT1080 cells was used for identification of the gelatinase species (92 kDa, gelatinase B/MMP-9; 72 kDa, gelatinase A/MMP-2 latent form; 65 kDa intermediate and 62 kDa activated forms of MMP-2).\n(§4) Lane 1 is the control resulting from treatment of the cells with 0.1% DMSO. Lanes 2 and 3 correspond to those cells which are treated with 2 μM compound 1 in the absence of TGF-β1 for 24 and 48 hours, respectively. Lane 4 corresponds to cells which have been treated with TGF-β1 in the absence of compound 1. Lane 5 corresponds to cells which have been treated with TGF-β1 for 48 hours with compound 1 being added to the incubation mixture for the final 24 hours. Lane 6 corresponds to cells which have been treated for 48 hours with both TGF-β1 and compound 1.\n(§5) *The control band was defined as 100% gelatinase activity and the other\n(§6) bands were normalized to it. Numbers reflect triplicate measurements from\n(§7) each zymogram band of representative zymograms. Standard deviations, not"}, "MMP-2 [4]": {"tested_on": "MMP-2", "assay": "Gelatin zymography of HT1080 cells, compound 1 with or without TGF-β1 (densitometry)", "assay_type": "cell-based, human", "details": "TGF-β alone (0 hr compound 1), control band = 100%", "protocol": "as §1, §2, §3, §4, §5, §6, §7"}, "MMP-9": {"tested_on": "MMP-9", "assay": "Gelatin zymography of HT1080 cells, compound 1 with or without TGF-β1 (densitometry), 92 kDa", "assay_type": "cell-based, human", "details": "TGF-β alone (0 hr compound 1), control band = 100%", "protocol": "as §1, §2, §3, §4, §5, §6, §7"}, "gelatinase activity": {"tested_on": "gelatinase activity", "assay": "Gelatin zymography of A2058 and HT1080 cells, compound 1 with or without TGF-β1 (results in words)", "assay_type": "cell-based, human", "details": "TGF-β1 (5 ng/mL) alone for 48 hr", "protocol": "as §3, §4"}, "MMP-2 [5]": {"tested_on": "MMP-2", "details": "cited from earlier work; for MMP-2 induction/inhibition: human melanoma and fibrosarcoma cells"}, "[6]": {"tested_on": "interstitial collagenase, MMP-1", "details": "human melanoma and fibrosarcoma cells; cited from earlier work"}, "[7]": {"tested_on": "gelatinase activity of the metalloproteinases", "assay": "Zymogram slices incubated with compound 1 or calcium chelators in the activating buffer (direct inhibition of enzyme)", "assay_type": "biochemical, human", "details": "10 mM chelator in incubation buffer; data not shown", "protocol": "See, Felder, et al., J. Pharm. Exp. Therapeut. 257:967-971 (1991) and unpublished observations by the inventors.\nGelatin zymography was carded out using control conditioned media from A2058 cells and HT1080 cells in the absence of compound 1. Zymogram slices were incubated in low salt collagenase buffer with control (DMSO 0.1%), an inhibitory dose of compound 1 (20 μM), or the calcium chelators EGTA (10 mM) and EDTA (10 mM). […] See, Brown, et al., Cancer Res. 50:6184-6191 (1990). […] Lane 1 for each of the zymograms corresponds to A2058 while lane 2 corresponds to HT1080."}, "[8]": {"tested_on": "gelatinase activity of the metalloproteinases", "details": "EDTA in incubation buffer; shown by others; cited from earlier work"}}, "note": "Entries after “also recorded” stand apart in the source; their conditions may differ."}
{"molecule": "COc1ccc(CCCOC(Cn2ccnc2)c2ccc(OC)cc2)cc1", "note": "(stereo not shown) [Compound 2, reference compound]", "values": [{"measurement": "MMP-2 activity", "setting": "MMP-2 [1]; A2058, 10 μM (FIG. 1E)", "result": "reduced MMP-2 activity"}, {"measurement": "inhibition of MMP-2 gelatinase activity (FIG. 1)", "setting": "MMP-2 [1]; zymograms of FIG. 1", "result": "inhibition"}, {"measurement": "calcium influx inhibition", "setting": "[2]", "result": "inhibited; also recorded: effective inhibitor of receptor-operated calcium channels with reactivity against some voltage-gated calcium channels"}, {"measurement": "arachidonic acid release", "setting": "arachidonic acid release", "result": "inhibited"}, {"measurement": "tyrosine phosphorylation with activation of phospholipase C-γ", "setting": "phospholipase C-γ", "result": "inhibited"}]}
{"molecule": "TGF-β1: transforming growth factor-β1", "values": [{"measurement": "gelatinase activity, 65 + 62 kDa", "setting": "MMP-2 [3]", "result": 0, "unit": "%"}, {"measurement": "gelatinase activity, 72 kDa", "setting": "MMP-2 [3]", "result": 68, "unit": "%"}, {"measurement": "gelatinase activity, 65 + 62 kDa", "setting": "MMP-2 [4]", "result": 192, "unit": "%"}, {"measurement": "gelatinase activity, 72 kDa", "setting": "MMP-2 [4]", "result": 47, "unit": "%"}, {"measurement": "gelatinase activity, 92 kDa", "setting": "MMP-9", "result": 64, "unit": "%"}, {"measurement": "gelatinase activity", "setting": "gelatinase activity", "result": "increased gelatinase activity"}, {"measurement": "production of MMP-2 by stimulation of RNA expression", "setting": "MMP-2 [5]; cell type not stated", "result": "stimulate production of MMP-2 by stimulation of RNA expression"}, {"measurement": "MMP-2 induction/inhibition", "setting": "MMP-2 [5]", "result": "induction of MMP-2"}, {"measurement": "MMP-1 induction/inhibition", "setting": "[6]", "result": "inhibition of the interstitial collagenase, MMP-1"}]}
{"molecule": "O=C(O)CN(CCN(CC(=O)O)CC(=O)O)CC(=O)O", "note": "[EDTA, ethylenediamine tetraacetic acid, reference compound]", "values": [{"measurement": "requirement for metal ion in the activation buffer", "setting": "[7]", "result": "confirmed the requirement for metal ion (Ca^++) in the activation buffer"}, {"measurement": "inhibition of gelatinolytic activity", "setting": "[8]", "result": "inhibit gelatinolytic activity"}]}
{"molecule": "CCCCCCCCCCCCCC(=O)OC1C(C)C2(O)C(C=C(CO)CC3(O)C(=O)C(C)=CC32)C2C(C)(C)C12OC(C)=O", "note": "(stereo not shown) [TPA, 12-O-tetradecanoylphorbol-13-acetate, reference compound]", "values": [{"measurement": "MMP-2 induction/inhibition", "setting": "MMP-2 [5]", "result": "inhibition of MMP-2"}, {"measurement": "MMP-1 induction/inhibition", "setting": "[6]", "result": "induction of MMP-1"}]}
{"molecule": "O=C(O)CN(CCOCCOCCN(CC(=O)O)CC(=O)O)CC(=O)O", "note": "[EGTA, ethylenebis(oxyethylenenitrilo)tetraacetic acid, reference compound]", "values": [{"measurement": "requirement for metal ion in the activation buffer", "setting": "[7]", "result": "confirmed the requirement for metal ion (Ca^++) in the activation buffer"}]}
